Experimental findings from ChEMBL document CHEMBL3400046, “Discovery and evaluation of a novel monocyclic series of CXCR2 antagonists” (Bioorg Med Chem Lett, 2015) are described below.

Structures are written as SMILES.

The nature of series [1]: Dissociation constant, pKa of the compound. The series is classed as physicochemical.
The nature of a further series: physchem. The conditions noted are these: octanol/water.
The next series relates to Rattus norvegicus. The series is described as follows: Dose normalized AUC in po dosed rat. Type of series: ADME, organism-based. The conditions noted are these: in vivo.
The nature of series [2]: in vitro. The conditions noted are these: human, hepatocytes.
The nature of series [3]: Volume of distribution at steady state in iv dosed rat. The series is classed as ADME, organism-based. The conditions noted are these: in vivo, read-out: Vdss.
A short description of series [4]: in vitro. The conditions noted are these: human, Caco-2.
The nature of the next series: in vivo. The conditions noted are these: rat, iv.
Series [5] in a line: Bioavailability in iv dosed rat. The conditions noted are these: in vivo. Type of series: ADME, organism-based.
Series [6] is described as follows: Half life in iv dosed rat. The series is classed as ADME, organism-based. The conditions noted are these: in vivo.
A short description of series [7]: Fraction of the dose absorbed in iv dosed rat. The conditions noted are these: in vivo, read-out: Fabs. The series is classed as ADME, organism-based.
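Wherever logD is given: distribution coefficient determined with the shake-flask method.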

A word on the pKa: it is the negative logarithm of the acid dissociation constant. By logD is commonly meant lipophilicity at a set pH, counting ionised and neutral species. Turning to `C[C@H](CO)Nc1cc(NS(C)(=O)=O)nc(SCc2ccccc2)n1`, the pKa in [1] was 6.9. This compound also gave a logD in the series “physchem” of 1.9.
`C[C@H](CO)Nc1cc(C(=O)O)nc(SCc2ccccc2)n1`: in series [1], the pKa was 5.5. The logD in the series “physchem” was -0.7.
Taken in the same sequence, the figures for `C[C@H](CO)Nc1cc(NS(=O)(=O)C(F)(F)F)nc(SCc2ccccc2)n1` were 5.8 and 2.2.
Usually hepatocyte CLint stands for the rate of metabolic loss divided by the concentration. Lower therefore signals slow turnover. Usually Papp A→B stands for the apparent permeability from the apical to the basolateral side of a cell layer. A lower Papp A→B goes with poor permeation. The term clearance denotes the rate of elimination divided by the concentration. A high value points to efficient removal. Usually bioavailability stands for the share of a dose that reaches the circulation, judged against a reference dose that is usually intravenous. A low value points to poor availability. As a reminder, the half-life is the time in which the quantity being followed falls by half. Compound `C[C@H](CO)Nc1cc(NS(=O)(=O)N2CCC2)nc(SCc2cccc(F)c2F)n1` yielded an AUC/dose with Rattus norvegicus of 5.9 µM·h. In the series “in vitro [2]”, this compound returned a hepatocyte CLint of 3.1 µL/min/1e6 cells. Besides, the Vd in [3] turned out to be 1.4 L/kg. For the same compound, in the series “in vitro [4]”, the Papp A→B is 10.1 ×10⁻⁶ cm/s. The clearance in “in vivo” was 8 mL/min/kg. The compound also registered a bioavailability in series [5] of 44%. In series [6], this compound had a half-life of 3.2 h. The Fa in series [7] is 50%. For the same compound, the logD in the series “physchem” is 2.6.
In “in vitro [2]”, `C[C@H](CO)Nc1cc(NS(=O)(=O)N2CCCCC2)nc(SCc2cccc(F)c2F)n1` came in with a hepatocyte CLint of 30 µL/min/1e6 cells. In the series “physchem”, this compound came in with a logD of 3.9.
Regarding `C[C@H](CO)Nc1cc(NS(=O)(=O)N(C)C)nc(SCc2cccc(Cl)c2F)n1`, the Papp A→B in the series “in vitro [4]” was 6.4 ×10⁻⁶ cm/s. This compound had a logD in the series “physchem” of 3.4.
In the case of `C[C@H](CO)Nc1cc(C(=O)NS(C)(=O)=O)nc(SCc2ccccc2)n1`, the pKa in series [1] amounted to 4.9. Besides, the logD in “physchem” was -0.7.
Regarding `C[C@H](CO)Nc1cc(NS(=O)(=O)c2cn(C)cn2)nc(SCc2cccc(Cl)c2F)n1`, in “in vitro [4]”, the Papp A→B is 1.4 ×10⁻⁶ cm/s. Also, in the series “physchem”, the logD was 2.
As for `C[C@H](CO)Nc1cc(NS(=O)(=O)c2ccc(Cl)cc2)nc(SCc2ccccc2)n1`, the pKa in series [1] came to 6.5. Further, the logD in “physchem” was determined as 3.5.
In the series “in vitro [2]”, `C[C@H](CO)Nc1cc(NS(=O)(=O)N2CCOCC2)nc(SCc2cccc(Cl)c2F)n1` registered a hepatocyte CLint of 8 µL/min/1e6 cells. Also, the apparent permeability from apical to basolateral (Papp A→B) in the series “in vitro [4]” turned out to be 5.4 ×10⁻⁶ cm/s. For the same compound, the logD in the series “physchem” is 3.1.
In the case of `C[C@H](CO)Nc1cc(NS(=O)(=O)N(C)C)nc(SCc2ccccc2)n1`, in [1], the pKa came out at 7.3. For the same compound, the logD in “physchem” is 2.6.
As for `C[C@H](CO)Nc1cc(NS(=O)(=O)c2cn(C)cn2)nc(SCc2cccc(F)c2F)n1`, in “physchem”, the pH-dependent lipophilicity (logD) was 1.6.
In the series “in vitro [2]”, `C[C@H](CO)Nc1cc(NS(=O)(=O)N2CCC2)nc(SCc2cccc(Cl)c2F)n1` gave a hepatocyte CLint of 2.4 µL/min/1e6 cells. Besides, in “physchem”, the logD is 3.2.
As for `C[C@H](CO)Nc1cc(NS(=O)(=O)c2ccccc2)nc(SCc2ccccc2)n1`, the pKa in series [1] stood at 6.6. Besides, the logD in the series “physchem” was determined as 2.5.
Taken in the same sequence, the figures for `C[C@H](CO)Nc1cc(NS(=O)(=O)c2ccc(C#N)cc2)nc(SCc2ccccc2)n1` were 6.1 and 2.6.
Compound `C[C@H](CO)Nc1cc(NS(=O)(=O)Cc2ccccc2)nc(SCc2ccccc2)n1` returned a logD in “physchem” of 2.7.
As for `C[C@H](CO)Nc1nc(SCc2cccc(F)c2F)nc2nc(N)sc12`, the AUC/dose in the series with Rattus norvegicus was 0.7 µM·h. The same compound came in with a bioavailability in series [5] of 9%. The Fa in [7] amounted to 12%.
By AUC is commonly meant the area under the concentration-time curve, a measure of exposure. Lower therefore signals less exposure. In turn, `C[C@H](CO)Nc1nc(SCc2cccc(F)c2F)nc2[nH]c(=O)sc12` returned an area under the curve (AUC) in the series on Rattus norvegicus of 2.1 µM·h. Moreover, the hepatocyte CLint in the series “in vitro [2]” was 15 µL/min/1e6 cells. Moreover, the Vd in series [3] was determined as 0.3 L/kg. Besides, in “in vivo”, the clearance turned out to be 6 mL/min/kg. In series [5], this compound gave a bioavailability of 22%. Moreover, in series [6], the half-life was 1.1 h. Besides, the Fa in [7] turned out to be 24%.
With `C[C@H](CO)Nc1cc(NS(=O)(=O)N2CCOCC2)nc(SCc2cccc(F)c2F)n1`, the AUC/dose in the series on Rattus norvegicus was 1.6 µM·h. For the same compound, the intrinsic clearance (hepatocyte CLint) in the series “in vitro [2]” worked out at 4.6 µL/min/1e6 cells. Besides, in series [3], the Vd was determined as 1.1 L/kg. The clearance in “in vivo” came out at 25 mL/min/kg. For the same compound, in series [5], the bioavailability was determined as 31%. For the same compound, the half-life in series [6] was 1 h. In addition, in series [7], the Fa worked out at 48%.
Compound `C[C@H](CO)Nc1cc(NS(=O)(=O)N2CCNCC2)nc(SCc2cccc(Cl)c2F)n1` yielded a Papp A→B in the series “in vitro [4]” of 0.1 ×10⁻⁶ cm/s. Further, in “physchem”, the logD was 1.5.
`C[C@H](CO)Nc1cc(NS(=O)(=O)N2CCCC2)nc(SCc2cccc(F)c2F)n1` yielded a hepatocyte CLint in the series “in vitro [2]” of 12 µL/min/1e6 cells. In addition, the Papp A→B in the series “in vitro [4]” was 7.5 ×10⁻⁶ cm/s. In addition, in the series “physchem”, the logD is 3.4.
